Laboratory results: US9512107B2, “Therapeutically active compositions and their methods of use” (Agios Pharmaceuticals, Inc., priority 2012, dated 2016)
Where a chain is given by its changes, count along the chain named.

Experiments:
[1] = system: U87MG pLVX-IDH2 R140Q-neo cells; experiment: U87MG pLVX-IDH2 R140Q-neo cell based assay, 2-HG in media by LC-MS at 48 hours; conditions: Homo sapiens, U-87 MG
In short: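 U87MG cells stably expressing IDH2 R140Q were seeded overnight, then exposed to compound at 0.2% final DMSO at 37 °C, 5% CO2. 2-HG in the medium was quantified by LC-MS at 48 h. Growth inhibition was read by CellTiter-Glo luminescence at 72 h.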

IDH2 R172K = molecular target: T1, IDH2 R172K (Homo sapiens, UniProt P48735, R172K); experiment: IDH2 R172K enzymatic assay (NADPH cofactor depletion, diaphorase/resazurin readout); type: biochemical; conditions: read-out: Enz R172K
T1 sequence (P48735 40-452 R172K): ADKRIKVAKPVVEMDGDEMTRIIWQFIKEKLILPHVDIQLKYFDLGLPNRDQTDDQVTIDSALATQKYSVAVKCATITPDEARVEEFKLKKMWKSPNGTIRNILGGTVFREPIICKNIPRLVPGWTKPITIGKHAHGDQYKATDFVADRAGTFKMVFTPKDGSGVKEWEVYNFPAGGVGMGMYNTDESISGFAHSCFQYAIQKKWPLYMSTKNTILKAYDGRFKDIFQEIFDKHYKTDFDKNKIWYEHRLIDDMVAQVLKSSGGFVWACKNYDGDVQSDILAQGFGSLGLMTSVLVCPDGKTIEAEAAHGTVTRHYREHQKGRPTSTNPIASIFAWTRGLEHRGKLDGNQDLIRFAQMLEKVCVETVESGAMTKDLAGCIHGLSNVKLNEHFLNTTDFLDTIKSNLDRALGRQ
In short: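 Test compounds are incubated with the mutant enzyme for one hour at ambient temperature. A substrate mix of 50 μM NADPH plus 6.3 mM α-KG initiates turnover, which proceeds for one hour. Diaphorase and resazurin then halt the reaction by depleting the cofactor and convert the remaining NADPH into a fluorescent signal.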

IDH2 R140Q = molecular target: T2, IDH2 R140Q (Homo sapiens, UniProt P48735, R140Q); experiment: IDH2 R140Q enzymatic assay (cofactor depletion, similar format); type: biochemical; conditions: read-out: Enz R140Q
T2 sequence (P48735 40-452 R140Q): T1 sequence (P48735 40-452 R172K) with R101Q, K133R

IC50 [1] [nM] | IC50 (IDH2 R172K) [nM] | IC50 (IDH2 R140Q) [nM] | Compound
100 to 1000 | 1000 to 10000 | 100 to 1000 | CC(C)(O)CNc1nc(Nc2ccnc(F)c2)nc(-c2ccccc2F)n1 [Compound 623, 1-(4-(2-fluorophenyl)-6-(2-fluoropyridin-4-ylamino)-1,3,5-triazin-2-ylamino)-2-methylpropan-2-ol]
100 to 1000 | 100 to 1000 | < 100 | CC(C)Nc1nc(Nc2ccncc2)nc(-c2cccc(Cl)c2)n1 [Compound 185, 6-(3-chlorophenyl)-N^2-isopropyl-N^4-(pyridin-4-yl)-1,3,5-triazine-2,4-diamine]
< 100 | 100 to 1000 | 100 to 1000 | CC(C)Nc1nc(Nc2cc(F)cc(F)c2)nc(-c2ccc(N)nc2)n1 [Compound 645, 6-(6-aminopyridin-3-yl)-N2-(3,5-difluorophenyl)-N4-isopropyl-1,3,5-triazine-2,4-diamine]
< 100 | < 100 | < 100 | c1ccc(Nc2nc(NCC3CC3)nc(-c3ccccc3)n2)cc1 [Compound 111]
< 100 | < 100 | 100 to 1000 | COC(C)CNc1nc(Nc2ccnc(C(F)(F)F)c2)nc(-c2cccc(C(F)(F)F)n2)n1 (stereo not drawn) [Compound 524, N-(2-Methoxy-propyl)-6-(6-trifluoromethyl-pyridin-2-yl)-N′-(2-trifluoromethyl-pyridin-4-yl)-[1,3,5]triazine-2,4-diamine]
< 100 | < 100 | 100 to 1000 | CC(C)(C)Nc1nc(Nc2ccnc(C3CC3)c2)nc(-c2cccc(C(F)(F)F)n2)n1 [Compound 564, N-tert-Butyl-N′-(2-cyclopropyl-pyridin-4-yl)-6-(6-trifluoromethyl-pyridin-2-yl)-[1,3,5]triazine-2,4-diamine]
< 100 | 100 to 1000 | 100 to 1000 | CC(O)C(C)Nc1nc(Nc2ccnc(C(F)(F)F)c2)nc(-c2cccc(C(F)(F)F)n2)n1 (stereo not drawn) [Compound 548, 3-[4-(6-Trifluoromethyl-pyridin-2-yl)-6-(2-trifluoromethyl-pyridin-4-ylamino)-[1,3,5]triazin-2-ylamino]-butan-2-ol]
< 100 | 100 to 1000 | < 100 | COCc1cccc(Nc2nc(NC(C)C)nc(-c3ccccc3)n2)c1 [Compound 195, N^2-isopropyl-N^4-(3-(methoxymethyl)phenyl)-6-phenyl-1,3,5-triazine-2,4-diamine]
< 100 | < 100 | 100 to 1000 | CC(C)(C)Nc1nc(Nc2cc(F)cc(S(C)(=O)=O)c2)nc(-c2cccc(O)c2)n1 [Compound 646, 3-(4-(tert-butylamino)-6-((3-fluoro-5-(methylsulfonyl)phenyl)amino)-1,3,5-triazin-2-yl)phenol]
< 100 | 100 to 1000 | < 100 | Fc1cc(Nc2nc(NC3COC3)nc(-c3ccccc3F)n2)ccn1 [Compound 628, 6-(2-Fluoro-phenyl)-N-(2-fluoro-pyridin-4-yl)-N′-oxetan-3-yl-[1,3,5]triazine-2,4-diamine]
< 100 | < 100 | < 100 | CC(C)Nc1nc(Nc2ccnc(F)c2)nc(-c2ccccc2)n1 [Compound 223, N^2-(2-fluoropyridin-4-yl)-N^4-isopropyl-6-phenyl-1,3,5-triazine-2,4-diamine]
< 100 | < 100 | 100 to 1000 | CC(C)(C)Nc1nc(Nc2ccnc(C(F)(F)F)c2)nc(-c2cccc(N)n2)n1 [Compound 695, 6-(6-aminopyridin-2-yl)-N2-tert-butyl-N4-(2-(trifluoromethyl)pyridin-4-yl)-1,3,5-triazine-2,4-diamine]
< 100 | < 100 | 100 to 1000 | N#CC1(c2cc(Nc3nc(NCC4CC4)nc(-c4cccc(C(F)(F)F)n4)n3)ccn2)CC1 [Compound 617, 1-(4-((4-((cyclopropylmethyl)amino)-6-(6-(trifluoromethyl)pyridin-2-yl)-1,3,5-triazin-2-yl)amino)pyridin-2-yl)cyclopropanecarbonitrile]
